Data reported in patent US7326717B2, “Pyrimidine n-oxide compounds for stimulating the growth of keratin fibers and/or reducing loss thereof” (L'Oreal, priority 1930, dated 2008).

Key:
[1] = system: inducible NO-synthase (NOS2); assay: Modulation of the induction of NOS2 on normal human keratinocytes (NO-donor activity, nitrite/nitrate measurement); type: cell-based; conditions: for % inhibition: nitrites and nitrates measured; for NO-donating effect: conclusion from the table
Protocol: The activity of compounds A and A′ on inducible NO-synthase was evaluated in the test described by Heck et al. (J. B. C., Vol. 267, No. 30, 21277-21280, 25 Oct. 1992), test of “Modulation of the induction of NOS2 (Inducible Nitric Oxide Synthase) on normal human keratinocytes”. The aim of this test is to evaluate the final nitrate and nitrite concentration, after stimulation of NO-synthase 2 or application of an NO donor; it is performed by comparison with the stimulation of cytokine-inducible NO-synthase. The final nitrate and nitrite concentration corresponds to the concentration of NO released.
The test is performed on a culture of normal human keratinocytes obtained from samples. The induction of inducible NO-synthase (NOS2) was brought about by the addition of a combination of several cytokines to the culture medium. The test products were applied at three concentrations ranging from […] to 1000 μM.
The following controls were introduced into the test: • A: Positive control (induction of the enzyme on stimulated cells): mixtures of interferon-γ (1000 μ/ml) and of interleukin 1-β (100 μ/ml) corresponding to […]; • B: Basal control of the unstimulated cells (without cytokines), corresponding to […].
To determine the activity of the test products, the amount of stable NO reaction products (nitrites and nitrates) is measured using the “Nitric Colorimetric Assay” kit sold by the company Boehringer under the reference 1756.28.
The compounds were tested at concentrations of 100 μM, 500 μM and 1000 μM in ethanol.

[2] = system: lysyl-hydroxylase messenger RNA; assay: Inhibition of the expression of LH (RT-PCR) in normal human dermal fibroblasts; type: cell-based; conditions: for inhibition of the expression of lysyl-hydroxylase messenger RNA: human fibroblasts in culture, compound 1′ at 10 μM; for LH/actine ratio: percentage of expression of LH over β-Actin internal standard; for LH/actine ratio / LH/collagen ratio: control = 100, NHDF treated 6 hours; for LH/collagen ratio: percentage of expression of LH relative to collagen messenger RNA
Protocol: Normal human dermal fibroblasts (NHDF) are precultured at high density for 48 hours in MEM199 medium (Gibco) supplemented with 1% foetal calf serum and then treated or not treated with compound 1′ or 1 for 6 hours. The cell carpets are then washed with phosphate-buffered saline (PBS) and then frozen in Tri-reagent medium (Sigma). The total RNAs obtained are extracted with Tri-reagent (Sigma) according to the supplier's protocol. A further extraction is performed using chloroform and the RNAs are then precipitated from isopropanol. After removal of the contaminating traces of DNA by treatment with the DNA-free system (Ambion), a reverse transcription of the RNAs into complementary DNA is performed in the presence of oligo dT and the enzyme superscript II (Gibco).
A pair of primers allowing the amplification of specific LH fragments (516 bp; Mahéet al., 1996, Skin Pharmacol. 9, 177-183) and of specific primers of the sequence of collagen I (420 pb) and β-Actin (500 bp, internal reaction standard) were used for the polymerization chain reaction (PCR) with the PCR Supermix system (Gibco) under the following conditions: 94° C. for 2 minutes and then 25 times (95° C.-1 min, 55° C.-1 min, 72° C.-2 min), the chain reaction being terminated by an elongation cycle of 7 minutes at 72° C.
The amplified fragments are then analysed by electrophoresis on agarose gel (1.5%) in the presence of ethidium bromide. The images were captured on GelPrint 2000i (Biophotonics Corp); the densitometric analyses were obtained using the One D-Scan software (Scanalytics).
The results are expressed as a percentage of expression of LH over the β-Actin internal standard (LH/actine) or relative to the collagen messenger RNA (LH/collagen). A reduction of one or of the two percentages indicates a transcriptional inhibition of the relative expression of lysyl hydroxylase and, by analogy, with the molecule 2-4 DPO, (Mahéet al. 1996, Skin Pharmacol. 9. 177-183) a possible use for limiting the abnormal crosslinking of collagen in alopecia.

[3] = system: lysyl-hydroxylase; conditions: described in WO 96/09048; cited from earlier work
[4] = system: type L calcium-channel; conditions: read-out: IC50Ca2+ (concentration that inhibits 50% of the release of Ca2+); cited from earlier work
[5] = 100 μM in ethanol, 100 = cytokine-stimulated control A, 0 = unstimulated control B

Compound | % inhibition [1, 5] [%] | NO-donating effect [1] | inhibition of the expression of lysyl-hydroxylase messenger RNA [2] | LH/actine ratio [2] [%] | LH/collagen ratio [2] [%] | also measured
Nc1nccc(NCCCCO[N+](=O)[O-])[n+]1[O-] [Compound 1] | 0 | have an NO-donating effect | no inhibitory activity | 123 | 133 | % inhibition ([1]; 500 μM in ethanol, 100 = control A, 0 = control B, NE means no effect): 18.23%
Nc1nccc(NCCCCO)[n+]1[O-] [Compound 1′] | – | – | −24% to −36% | 64 | 76 | –
Nc1nccc(NCCO[N+](=O)[O-])[n+]1[O-] [Compound 2] | 38.77 | have an NO-donating effect | – | – | – | –
Nc1nccc(NCCCO[N+](=O)[O-])[n+]1[O-] [Compound 3] | – | have an NO-donating effect | – | – | – | –
Nc1cc[n+]([O-])c(N)n1 [aminexil, 2,4-diaminopyrimidine N-oxide] | – | – | – | – | – | inhibitory activity on the expression of lysyl-hydroxylase [3]: has inhibitory activity on the expression of lysyl-hydroxylase
COc1ccc(CCN(C)CCCC(C#N)(c2ccc(OC)c(OC)c2)C(C)C)cc1OC (centres unmarked) [verapamil] | – | – | – | – | – | IC50 [4]: 38 nM
